The values that follow are results of earlier work, collected in US8691571B1, “Extending tissue preservation” (University of South Florida, priority 1998, dated 2014).

The test system of the data set is rabbit cornea. The settings on record: addition to storage medium; without changing metabolic activity for at least 11 days.

Take `CC(O)CC(=O)O` (stereo not drawn) [beta-hydroxy butyrate]: the “diminished lactic acid concentration of rabbit cornea” value is on record as 85%.
